Laboratory results as given in patent publication US20040039062A1, “Urea, ruminally synthesizable mainly to microbial crude protein” (Agri-Nutrients Technology Group, Inc., priority 2002, published 2004).

Assays:
Fresh rumen fluid = test: In-vitro urea conversion test: ruminal synthesis of urea to microbial crude protein (MCP) in rumen fluid; design: species or system heifer
Protocol: A series of urea conversion in-vitro tests were arranged using the following materials: (1) Fresh rumen fluid withdrawn via a pump through a strainer from a heifer receiving no feed for the prior two days. (2) Simulated Saliva composition of E. I. McGougal in Biochemical Journal, Vol. 43, page 106. (3) Cellulose energy source, Whatman Chromedia Microgranular Cellulose, free from other nutrient compounds. […] The in-vitro tests were run with each sample in a 250 ml Erlenmeyer flask receiving the ingredients listed as follows: [table] The test flasks were placed in a constant temperature bath operating at 39° C. Carbon dioxide was used to displace the air in the flasks. Samples amounting to 10 grams were withdrawn on an accurate time schedule with the air in the sample container replaced by carbon dioxide. The samples were immediately treated with 1 percent mercuric chloride to terminate microbial activity in the samples. The samples were analyzed for total nitrogen, ammonia nitrogen, and […] by difference.

[1] = Water solubility test of coated urea (5 gram sample in 200 grams distilled water at 39° C., urea dissolved after 10 hours); type: physicochemical
Protocol: The mixture was swirled briefly only when the sample was added and at the end of 10 hours. The percent of the urea dissolved in 10 hours was measured to be 45 by weight.

urea water solubilities at 39° C. (in words) [1]: high
Structure (SMILES): NC(N)=O [Test No. 6, urea]
synthesis efficiencies to MCP (in words) (Fresh rumen fluid; after 8 hours): low | Urea Synthesized to MCP (Fresh rumen fluid; rumen fluid, 8 hours): 3.6%
